# In the supplement of paper PMC10307832:
# Tests used:
# Experiment in all cases: relative viability (nuclei count vs DMSO), 5 days (fraction); higher = more cells survive
# A-427 = test system: A-427
# Method in brief: (§1)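 Each reported value is a median over duplicate plates. It expresses relative viability: treated-well nuclei count divided by vehicle-well nuclei count. Lung cancer cell lines in 1536-well plates were dosed by pin tool a day after seeding, alone with one drug or with a fixed anchor-drug dose plus five library-drug doses (not always all listed) in √10 steps, and nuclei were counted after 5 days.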
# NCI-H1437 = test system: NCI-H1437
# Method in brief: as §1
# HOP-62 = test system: HOP-62
# Method in brief: as §1
# CAL-12T = test system: CAL-12T
# Method in brief: as §1
# HCC-827 = test system: HCC-827
# Method in brief: as §1
# NCI-H727 = test system: NCI-H727
# Method in brief: as §1
# NCI-H522 = test system: NCI-H522
# Method in brief: as §1
# NCI-H460 = test system: NCI-H460
# Method in brief: as §1
# EMC-BAC-2 = test system: EMC-BAC-2
# Method in brief: as §1
# NCI-H1915 = test system: NCI-H1915
# Method in brief: as §1
# NCI-H1395 = test system: NCI-H1395
# Method in brief: as §1
# NCI-H1792 = test system: NCI-H1792
# Method in brief: as §1
# NCI-H23 = test system: NCI-H23
# Method in brief: as §1
# HCC-366 = test system: HCC-366
# Method in brief: as §1
# HARA = test system: HARA
# Method in brief: as §1
# LCLC-103H = test system: LCLC-103H
# Method in brief: as §1
# NCI-H1755 = test system: NCI-H1755
# Method in brief: as §1
smiles,measurement,setting,value
O=c1cc(-c2cccc3c2Sc2ccccc2S3)oc(N2CCOCC2)c1 + NC(=O)Nc1cc(-c2cccc(F)c2)sc1C(=O)N[C@H]1CCCNC1 [AZD7762] (partner 0.2 µM),relative viability,A-427; first compound 0.08 µM,0.715
same,relative viability,A-427; first compound 0.253 µM,0.842
same,relative viability,A-427; first compound 0.8 µM,0.791
same,relative viability,A-427; first compound 2.53 µM,0.41
same,relative viability,A-427; first compound 8 µM,0.616
same,relative viability,NCI-H1437; first compound 0.08 µM,1.07
same,relative viability,NCI-H1437; first compound 0.253 µM,1.23
same,relative viability,NCI-H1437; first compound 0.8 µM,1.2
same,relative viability,NCI-H1437; first compound 2.53 µM,1.17
same,relative viability,NCI-H1437; first compound 8 µM,1.23
same,relative viability,HOP-62; first compound 0.08 µM,0.477
same,relative viability,HOP-62; first compound 0.253 µM,0.61
same,relative viability,HOP-62; first compound 0.8 µM,0.869
same,relative viability,HOP-62; first compound 2.53 µM,0.493
same,relative viability,HOP-62; first compound 8 µM,0.944
same,relative viability,CAL-12T; first compound 0.08 µM,0.585
same,relative viability,CAL-12T; first compound 0.253 µM,0.555
same,relative viability,CAL-12T; first compound 0.8 µM,0.601
same,relative viability,CAL-12T; first compound 2.53 µM,0.626
same,relative viability,CAL-12T; first compound 8 µM,0.642
same,relative viability,HCC-827; first compound 0.08 µM,0.199
same,relative viability,HCC-827; first compound 0.253 µM,0.196
same,relative viability,HCC-827; first compound 0.8 µM,0.165
same,relative viability,HCC-827; first compound 2.53 µM,0.122
same,relative viability,HCC-827; first compound 8 µM,0.188
same,relative viability,NCI-H727; first compound 0.08 µM,0.501
same,relative viability,NCI-H727; first compound 0.253 µM,0.655
same,relative viability,NCI-H727; first compound 2.53 µM,0.413
same,relative viability,NCI-H727; first compound 8 µM,0.739
same,relative viability,NCI-H522; first compound 0.08 µM,0.821
same,relative viability,NCI-H522; first compound 0.253 µM,0.926
same,relative viability,NCI-H522; first compound 0.8 µM,0.864
same,relative viability,NCI-H522; first compound 2.53 µM,0.654
same,relative viability,NCI-H522; first compound 8 µM,0.813
same,relative viability,NCI-H460; first compound 0.08 µM,0.742
same,relative viability,NCI-H460; first compound 0.253 µM,0.695
same,relative viability,NCI-H460; first compound 0.8 µM,0.669
same,relative viability,NCI-H460; first compound 2.53 µM,0.431
same,relative viability,NCI-H460; first compound 8 µM,0.685
same,relative viability,EMC-BAC-2; first compound 0.08 µM,1.06
same,relative viability,EMC-BAC-2; first compound 0.253 µM,1.37
same,relative viability,EMC-BAC-2; first compound 0.8 µM,0.952
same,relative viability,EMC-BAC-2; first compound 2.53 µM,1.11
same,relative viability,EMC-BAC-2; first compound 8 µM,1.2
same,relative viability,NCI-H1915; first compound 0.08 µM,0.716
same,relative viability,NCI-H1915; first compound 0.253 µM,0.761
same,relative viability,NCI-H1915; first compound 0.8 µM,0.795
same,relative viability,NCI-H1915; first compound 2.53 µM,0.681
same,relative viability,NCI-H1915; first compound 8 µM,0.716
same,relative viability,NCI-H1395; first compound 0.08 µM,0.384
same,relative viability,NCI-H1395; first compound 0.253 µM,0.395
same,relative viability,NCI-H1395; first compound 0.8 µM,0.378
same,relative viability,NCI-H1395; first compound 2.53 µM,0.373
same,relative viability,NCI-H1395; first compound 8 µM,0.418
same,relative viability,NCI-H1792; first compound 0.08 µM,0.541
same,relative viability,NCI-H1792; first compound 0.253 µM,0.632
same,relative viability,NCI-H1792; first compound 0.8 µM,0.549
same,relative viability,NCI-H1792; first compound 2.53 µM,0.55
same,relative viability,NCI-H1792; first compound 8 µM,0.583
same,relative viability,NCI-H23; first compound 0.08 µM,0.205
same,relative viability,NCI-H23; first compound 0.253 µM,0.251
same,relative viability,NCI-H23; first compound 0.8 µM,0.349
same,relative viability,NCI-H23; first compound 2.53 µM,0.203
same,relative viability,NCI-H23; first compound 8 µM,0.229
same,relative viability,HCC-366; first compound 0.08 µM,0.258
same,relative viability,HCC-366; first compound 0.253 µM,0.32
same,relative viability,HCC-366; first compound 0.8 µM,0.302
same,relative viability,HCC-366; first compound 2.53 µM,0.118
same,relative viability,HCC-366; first compound 8 µM,0.222
same,relative viability,HARA; first compound 0.08 µM,0.234
same,relative viability,HARA; first compound 0.253 µM,0.327
same,relative viability,HARA; first compound 0.8 µM,0.364
same,relative viability,HARA; first compound 2.53 µM,0.208
same,relative viability,HARA; first compound 8 µM,0.256
same,relative viability,LCLC-103H; first compound 0.08 µM,0.717
same,relative viability,LCLC-103H; first compound 0.253 µM,0.825
same,relative viability,LCLC-103H; first compound 0.8 µM,0.866
same,relative viability,LCLC-103H; first compound 2.53 µM,0.784
same,relative viability,LCLC-103H; first compound 8 µM,0.822
same,relative viability,NCI-H1755; first compound 0.08 µM,0.535
same,relative viability,NCI-H1755; first compound 0.253 µM,0.453
same,relative viability,NCI-H1755; first compound 0.8 µM,0.439
same,relative viability,NCI-H1755; first compound 2.53 µM,0.566
same,relative viability,NCI-H1755; first compound 8 µM,0.418
